Data on one molecule can be found in article PMC4213485, “Relevant and selective activity of Pancratium illyricum L. against Candida albicans clinical isolates: a combined effect on yeast growth and virulence” (BMC Complementary and Alternative Medicine, 2014).

The target of the test is T1, Clostridium hystolyticum collagenase (EC.3.4.23.3).
T1 construct: gene colH
Briefly: FALGPA hydrolysis, absorbance at […] nm. The settings on record: FALGPA substrate (2 mM stock), 50 mM Tricine, 10 mM CaCl2, 400 mM NaCl, pH 7.5, 15 min preincubation. The format is biochemical, Hathewaya histolytica.

As to `O=C(O[C@@H]1Cc2c(O)cc(O)cc2O[C@@H]1c1cc(O)c(O)c(O)c1)c1cc(O)c(O)c(O)c1` [EGCG], the IC50 (commonly the concentration that inhibits the measured activity by half) was 9.45 ± 0.5 µM.
